Measured values as given in patent US20170121344A1 (Siga Technologies, Inc., priority 2009, published 2017).
Read-outs that look alike come from different tables or passages of the source.

Legend:
Conditions in all cases: Dengue virus
[1] = system: Dengue-2 (Strain New Guinea C); assay: Viral yield assay against Dengue-2 in Vero cells; assay type: cell-based, Dengue virus
Method in brief: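 Vero cells were infected with dengue-2 at MOI 0.1, treated with compound (DMSO control), and kept at 37° C. They were harvested 48 hours post infection and yield was titered on Vero cells. EC50 came from the yield curve, and the other serotypes were run in a similar way.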

[2] = system: DENV-1; assay: Viral yield assay against DENV-1 in Vero cells; assay type: cell-based
Experimental: (§1) Compounds that were active in the primary screen were tested for activity in viral yield assays. […] Vero cells in 12-well plates were infected with dengue-2 virus at a multiplicity of infection (MOI) of 0.1, treated with compound (or DMSO as a control), incubated at 37° C., harvested 48 hours post infection and titered on Vero cells as described above. The EC50 was calculated through ExcelFit. Activities against other serotypes of dengue virus were determined in a similar way.

[3] = system: DENV-3; assay: Viral yield assay against DENV-3 in Vero cells; assay type: cell-based
Experimental: as §1

[4] = system: DENV-4; assay: Viral yield assay against DENV-4 in Vero cells; assay type: cell-based
Experimental: as §1

[5] = DENV2, Vero cells, read-out: Activity (EC50 in μM) DENV-2
[6] = DENV2, viral yield assay, Vero cells, MOI 0.1, 48 hours post infection, read-out: Activity (EC50 in μM) DENV-2
[7] = DENV2, Vero, 48 h, read-out: Activity (EC50 in μM) DENV-2
[8] = Vero, 48 h, read-out: Activity (EC50 class) against Dengue-2 Virus in Vero cells
[9] = Vero cells, MOI 0.1, harvested 48 hours post infection, read-out: Activity (EC50 class) against Dengue-2 Virus in Vero cells

| SMILES | EC50 [1, 6] [µM] | EC50 ([2]; DENV1, viral yield assay) [µM] | EC50 ([3]; DENV3, viral yield assay) [µM] | EC50 ([4]; DENV4, viral yield assay) [µM] | further results |
| --- | --- | --- | --- | --- | --- |
| NCCNc1c(C(=O)Nc2nnc(-c3ccccc3)s2)sc2nc3c(cc12)CCCCC3 [Compound 294, 3-((2-aminoethyl)amino)-N-(5-phenyl-1,3,4-thiadiazol-2-yl)-6,7,8,9-tetrahydro-5H-cyclohepta[b]thieno[3,2-e]pyridine-2-carboxamide] |  |  |  |  | EC50 [1, 5]: < 5 µM; EC50 ([2]; DENV1): < 5 µM; EC50 ([3]; DENV3): < 5 µM; EC50 ([4]; DENV4): < 5 µM |
| Nc1c(C(=O)Nc2ccc(Cl)c(C(F)(F)F)c2)sc2nc(-c3ccc4c(c3)OCO4)ccc12 [Compound 600, 3-amino-6-(1,3-benzodioxol-5-yl)-N-[4-chloro-3-(trifluoromethyl)phenyl]thieno [2,3-b]pyridine-2-carboxamide] | < 5 | < 5 | < 5 | < 5 |  |
| Nc1c(C(=O)Nc2ccc(Br)cc2)sc2nc(-c3ccc(Cl)cn3)ccc12 [Compound 349, 3-amino-N-(4-bromophenyl)-6-(5-chloro-2-pyridyl)thieno [2,3-b]pyridine-2-carboxamide] | < 5 | < 5 | < 5 | < 5 |  |
| COc1cccc(-c2ccc3c(N)c(C(=O)Nc4cccc(Cl)c4C)sc3n2)c1 [Compound 543, 3-amino-N-(3-chloro-2-methyl-phenyl)-6-(3-methoxyphenyl)thieno[2,3-b] pyridine-2-carboxamide] | < 5 | < 5 | < 5 | < 5 |  |
| O=C(O)CC(=O)Nc1c(C(=O)Nc2nnc(-c3ccccc3)s2)sc2nc(Cl)ccc12 [Compound 362, 3-[[6-chloro-2-[(5-phenyl-1,3,4-thiadiazol-2-yl)carbamoyl]thieno[2,3-b]pyridin-3-yl]amino]-3-oxo-propanoic acid] |  |  |  |  | EC50 [1, 5]: 5 to 25 µM; EC50 ([2]; DENV1): 5 to 25 µM; EC50 ([3]; DENV3): > 25 µM; EC50 ([4]; DENV4): > 25 µM |
| Nc1c(C(=O)N(CCC(=O)O)c2cccc(C(F)(F)F)c2)sc2nc(-c3cccs3)ccc12 [Compound 327, 3-[N-[3-amino-6-(2-thienyl)thieno[2,3-b]pyridine-2-carbonyl]-3-(trifluoromethyl)-anilino]propanoic acid] | < 5 | < 5 | < 5 | < 5 |  |
| Nc1c(C(=O)Nc2ccccc2)sc2nc(-c3ccc(Cl)cc3)ccc12 [Compound 631, 3-amino-6-(4-chlorophenyl)-N-phenyl-thieno[2,3-b]pyridine-2-carboxamide] | < 5 | < 5 | < 5 | < 5 |  |
| Nc1c(C(=O)Nc2ccccc2)sc2nc(-c3cccs3)ccc12 [Compound 411, 3-amino-N-phenyl-6-(2-thienyl)thieno [2,3-b]pyridin-2-carboxamide] |  | < 5 | < 5 | < 5 | EC50 [1, 7]: < 5 µM |
| CCCCNc1c(C(=O)Nc2nnc(-c3ccccc3)s2)sc2nc3c(cc12)CCCCC3 [Compound 289, 3-(butylamino)-N-(5-phenyl-1,3,4-thiadiazol-2-yl)-6,7,8,9-tetrahydro-5H-cyclohepta[b]thieno[3,2-e]pyridine-2-carboxamide] |  |  |  |  | EC50 [1, 5]: < 5 µM; EC50 ([2]; DENV1): < 5 µM; EC50 ([3]; DENV3): < 5 µM; EC50 ([4]; DENV4): < 5 µM |
| COc1cccc(-c2ccc3c(N)c(C(=O)Nc4ccc(F)cc4)sc3n2)c1 [Compound 510, 3-amino-N-(4-fluorophenyl)-6-(3-methoxyphenyl)thieno[2,3-b]pyridine-2-carboxamide] |  | < 5 | < 5 | < 5 | EC50 [1, 7]: < 5 µM |
| Nc1c(C(=O)Nc2cccc(Cl)c2)sc2nc(-c3cccs3)ccc12 [Compound 445, 3-amino-N-(3-chlorophenyl)-6-(2-thienyl)thieno[2,3-b]pyridine-2-carboxamide] | < 5 | < 5 | < 5 | < 5 |  |
| Cc1ccc(NC(=O)c2sc3nc(-c4ccc5c(c4)OCO5)ccc3c2N)c(C)c1 [Compound 596, 3-amino-6-(1,3-benzodioxol-5-yl)-N-(2,4-dimethyphenyl)thieno[2,3-b]pyridine-2-carboxamide] | < 5 | < 5 | < 5 | < 5 |  |
| COc1cccc(-c2ccc3c(N)c(C(=O)Nc4ccc(OC)cc4OC)sc3n2)c1 [Compound 512, 3-amino-N-(2,4-dimethoxyphenyl)-6-(3-methoxyphenyl)thieno[2,3-b]pyridine-2-carboxamide] | < 5 | < 5 | < 5 | < 5 |  |
| Nc1c(C(=O)Nc2ccc(C(F)(F)F)cc2)sc2nc(-c3ccc(F)cc3)ccc12 [Compound 455, 3-amino-6-(4-fluorophenyl)-N-[4-(trilfuoromethyl)phenyl]thieno[2,3-b] pyridine-2-carboxamide] | < 5 | < 5 | < 5 | 5 to 25 |  |
| COc1cccc(-c2ccc3c(N)c(C(=O)Nc4cccc(Br)c4)sc3n2)c1 [Compound 447, 3-amino-N-(3-bromophenyl)-6-(3-methoxyphenyl)thieno[2,3-b]pyridine-2-carboxamide] | < 5 | < 5 | < 5 | < 5 |  |
| COc1cccc(-c2ccc3c(N)c(C(=O)Nc4ccc(Br)cc4)sc3n2)c1 [Compound 446, 3-amino-N-(4-bromophenyl)-6-(3-methoxyphenyl)thieno[2,3-b]pyridine-2-carboxamide] | < 5 | < 5 | < 5 | < 5 |  |
| Nc1c(C(=O)Nc2ccc(F)cc2)sc2nc(-c3ccc4c(c3)OCO4)ccc12 [Compound 603, 3-amino-6-(1,3-benzodioxol-5-yl)-N-(4-fluorophenyl)thieno[2,3-b]pyridine-2-carboxamide] |  |  |  | < 5 | EC50 [1, 7]: < 5 µM |
| COc1ccc(-c2ccc3c(N)c(C(=O)Nc4ccc(OC(F)(F)F)cc4)sc3n2)cc1OC [Compound 584, 3-amino-6-(3,4-dimethoxyphenyl)-N-[4-(trifluoromethoxy)phenyl]thieno[2,3-b] pyridine-2-carboxamide] | < 5 |  |  | < 5 |  |
| Nc1c(C(=O)Nc2ccc(F)cc2Cl)sc2nc(-c3ccc(F)cc3)ccc12 [Compound 618, 3-amino-N-(2-chloro-4-fluoro-phenyl)-6-(4-fluorophenyl)thieno[2,3-b]pyridine-2-carboxamide] | < 5 | < 5 |  |  |  |
| O=C(O)CNc1c(C(=O)Nc2nnc(-c3ccccc3)s2)sc2nc(Cl)ccc12 [Compound 299, 2-[[6-chloro-2-[(5-phenyl-1,3,4-thiadiazol-2-yl)carbamoyl]thieno[2,3-b]pyridin-3-yl]amino]acetic acid] |  |  |  |  | EC50 [1, 5]: 5 to 25 µM; EC50 ([2]; DENV1): 5 to 25 µM; EC50 ([4]; DENV4): 5 to 25 µM |
| NC(=O)c1sc2nc3c(c(-c4ccc(Cl)cc4)c2c1N)CCCC3 [Compound 224, 3-Amino-4-(4-chloro-phenyl)-5,6,7,8-tetrahydro-thieno[2,3-b]quinoline-2-carboxylic acid amide] |  |  |  |  | EC50 [1, 8]: > 25 µM |
| Cc1sc(NC(=O)c2sc3nc4c(cc3c2N)CN(C)CC4)c(C#N)c1C [Compound 114, 3-Amino-6-methyl-5,6,7,8-tetrahydro-thieno[2,3-b][1,6]naphthyridine-2-carboxylic acid (3-cyano-4,5-dimethyl-thiophen-2-yl)-amide] |  |  |  |  | EC50 [1, 9]: 5 to 25 µM |
| COc1cccc(-c2ccc3c(N)c(C(=O)Nc4cc(OC)ccc4Cl)sc3n2)c1 [Compound 548, 3-amino-N-(2-chloro-5-methoxy-phenyl)-6-(3-methoxyphenyl)thieno[2,3-b] pyridine-2-carboxamide] | < 5 |  |  |  |  |
| COc1cccc(-c2ccc3c(N)c(C(=O)Nc4ccc(C)c(Br)c4)sc3n2)c1 [Compound 559, 3-amino-N-(3-bromo-4-methyl-phenyl)-6-(3-methoxyphenyl)thieno[2,3-b] pyridine-2-carboxamide] | < 5 |  | < 5 | < 5 |  |
| Cc1csc(NC(=O)c2sc3nc(-c4cccs4)ccc3c2N)n1 [Compound 55, 3-Amino-6-thiophen-2-yl-thieno[2,3-b]pyridine-2-carboxylic acid (4-methyl-thiazol-2-yl)amide] |  |  |  |  | EC50 [1, 8]: < 5 µM |
| O=C(Nc1ccccc1Cl)c1sc2ncccc2c1O [Compound 382, N-(2-chlorophenyl)-3-hydroxy-thieno[2,3-b]pyridine-2-carboxamide] | 5 to 25 |  |  |  |  |
| Nc1c(C(=O)Nc2cccc(Br)c2)sc2ncccc12 [Compound 421, 3-amino-N-(3-bromophenyl)thieno[2,3-b] pyridine-2-carboxamide] | 5 to 25 |  |  |  |  |
| CCc1cccc(NC(=O)c2sc3nc(-c4ccc5c(c4)OCO5)ccc3c2N)c1 [Compound 592, 3-amino-6-(1,3-benzodioxol-5-yl)-N-(3-ethylphenyl)thieno[2,3-b]pyridine-2-carboxamide] | < 5 |  |  |  |  |
| Cc1cccc(NC(=O)c2sc3nc(N)c(C#N)c(-c4ccc(C(C)C)cc4)c3c2N)c1C [Compound 143, 3,6-Diamino-5-cyano-4-(4-isopropyl-phenyl)-thieno[2,3-b]pyridine-2-carboxylic acid (2,3-dimethyl-phenyl)-amide] |  |  |  |  | EC50 [1, 9]: > 25 µM |
